Experimental data as given in patent US8586291B2 (priority 2001, dated 2013).

Experiments:
[1] = test system: Ba/F3 + IL-3 (BCR-ABL-negative parental cells); experiment: Growth inhibition, viable cells by trypan blue dye exclusion; format: cell-based, murine; conditions: Mus musculus, BaF3, concentration reducing number of viable cells by 50%, read-out: MEAN IC50 ± S.D.
Ba/F3 P210 WT = experiment: as above; format: cell-based, murine; conditions: Mus musculus, BaF3, concentration reducing number of viable cells by 50%, read-out: MEAN IC50 ± S.D.
Ba/F3 P210 T315I = experiment: as above; format: cell-based, murine; conditions: Mus musculus, BaF3, concentration reducing number of viable cells by 50%, read-out: MEAN IC50 ± S.D.
Ba/F3 P210 E255K = experiment: as above; format: cell-based, murine; conditions: Mus musculus, BaF3, concentration reducing number of viable cells by 50%, read-out: MEAN IC50 ± S.D.
[2] = test system: wild-type BCR-ABL-expressing Ba/F3 cells; experiment: CRKL phosphorylation, western blot and densitometry; format: cell-based, murine; conditions: 24 hours
[3] = test system: T315I BCR-ABL-expressing Ba/F3 cells; experiment: as above; format: cell-based, murine; conditions: 24 hours
[4] = test system: E255K BCR-ABL-expressing Ba/F3 cells; experiment: as above; format: cell-based, murine; conditions: 24 hours
wild-type BCR-ABL = experiment: BCR-ABL protein degradation, anti-ABL western blot in Ba/F3 cells; conditions: 24 hours
T315I BCR-ABL = experiment: as above; conditions: 24 hours
E255K BCR-ABL = experiment: as above; conditions: 24 hours
v-Src versus c-Src = conditions: cited from earlier work

Row | IC50 (Ba/F3 P210 WT) [µM] | IC50 (Ba/F3 P210 T315I) [µM] | IC50 (Ba/F3 P210 E255K) [µM] | Structure (SMILES) | IC50 [1] [µM] | concentration at which significant changes in CRKL phosphorylation were observed [2] [µM] | concentration at which CRKL phosphorylation was significantly inhibited [3] [µM] | concentration at which CRKL phosphorylation was significantly inhibited [4] [µM] | concentration at which BCR-ABL protein levels decrease (wild-type BCR-ABL) [µM] | concentration at which BCR-ABL protein levels decrease (T315I BCR-ABL) [µM] | concentration at which virtually no BCR-ABL protein was detectable (T315I BCR-ABL) [µM] | concentration at which BCR-ABL protein levels decrease (E255K BCR-ABL) [µM] | concentration at which virtually no BCR-ABL protein was detectable (E255K BCR-ABL) [µM] | fold resistance of v-Src versus c-Src to kinase inhibition (v-Src versus c-Src)
1 | 5.2 ± 2.4 | 2.3 ± 0.4 | 1 ± 0.2 | C=CCNC1=C2C[C@@H](C)C[C@H](OC)[C@H](O)[C@@H](C)/C=C(\C)[C@H](OC(N)=O)[C@@H](OC)/C=C\C=C(/C)C(=O)NC(=CC1=O)C2=O [17-AAG, 17-allylaminogeldanamycin] | 12.4 ± 0.3 | 5.0 | 0.5 | 0.5 | 0.5 to 1.0 | 0.5 | 1.0 | 0.5 | 1.0 | –
2 | 4.9 ± 1.6 | 1.8 ± 2.1 | 2.6 ± 2.4 | COC1=C2C[C@@H](C)C[C@H](OC)[C@H](O)[C@@H](C)/C=C(\C)[C@H](OC(N)=O)[C@@H](OC)/C=C\C=C(/C)C(=O)NC(=CC1=O)C2=O [GA, Geldanamycin] | 27.3 ± 14.1 | – | – | – | 1.0 | 0.5 | – | 0.5 | – | –
3 | – | – | – | Cc1ccc(-c2nn(C(C)(C)C)c3ncnc(N)c23)cc1 [PP1] | – | – | – | – | – | – | – | – | – | approximately 50 fold
